Key:
Assay type in all cases: cell-based
[1] = test system: phosphorylated Akt protein; test: Cellular PI3K / Akt pathway assay (phospho-Akt Ser473 sandwich ELISA); conditions: Homo sapiens; MCF7 cells, ß-Heregulin (20ng/ml) stimulation, 48h incubation
Experimental: In order to study the cellular activity of the compounds according to the present invention, an Enzyme Linked Immunosorbent Assay (ELISA)-based assay has been used specific phospho-AKT. The assay is based on a Sandwich ELISA kit (PathScan™ Phospho-Akt1 (Ser473); Cell Signaling, USA; #7160). The ELISA Kit detects endogenous levels of phosphorylated Akt protein. A phospho-Akt (Ser473) antibody (Cell Signaling, USA; #9271) has been coated onto the microwells. After incubation with cell lysates, the coated antibody captures the phosphorylated Akt protein. Following extensive washing, Akt1 monoclonal antibody (Cell Signaling, USA; #2967) is added to detect the captured phospho-Akt1 protein. HRP-linked anti-mouse antibody (HRP: horseradish peroxidase; Cell Signaling, USA; #7076) is then used to recognize the bound detection antibody. HRP substrate (= 3,3',5,5'-tetramethylbenzidine (TMB); Cell Signaling, USA; #7160) is added to develop colour. The magnitude of optical density for this developed color is proportional to the quantity of phosphorylated Akt protein. MCF7 cells (ATCC HTB-22) are seeded into 96 well fate bottom plates at a density of 10000 cells/well. 24 hours after seeding, the cells are serum starved using low-serum medium (IMEM media including 0,1% charcoal treated FCS (FCS: fetal calf serum)). […] To stimulate Akt phosphorylation, ß-Heregulin (20ng/ml ß-HRG) is added in parallel to the compounds. Wells containing unstimulated control cells (no ß-Heregulin stimulation) are incubated with or without the diluted compound. Wells containing untreated control cells (no compound) are filled with medium containing 0.5% v:v DMSO and are or are not stimulated with ß-Heregulin. Cells are harvested and lysed with brief sonification in 1x cell lysis buffer (20mM Tris (pH7.5), 150 mM NaCl, 1 mM ethylene diaminetetraacetate (EDTA), 1 mM ethylene glycolbis(2-aminoethyl)-N,N,N',N'-tetraacetic acid (EGTA), 1vol% Triton X-100, 2.5mM sodium pyrophosphate, 1 mM β-glycerolphosphate, 1 mM Na3VO4, 1µg/ml leupeptin). The lysate is centrifuged for 10 min. at 4°C and the supernatant is transferred to a new tube. 100 µl of sample diluent (0.1vol% Tween-20, 0.1vol% sodium azide in phosphate buffered saline (PBS)) are added to a microcentrifuge tube and 100 µl of cell lysate are transferred into the tube and vortexed. 100 µl of each diluted cell lysate are added to the appropriate ELISA well, and incubated overnight at 4°C. The plates are washed 4 times with 1x wash buffer (1vol% tween-20, 0.33vol% thymol, in PBS). Next 100 µl of detection antibody (Akt1 (2H10) monoclonal detection antibody; Cell Signaling, USA; #2967) are added to each well and incubation continued for 1h at 37°C. The washing procedure is repeated between each step. 100µl of secondary antibody (anti-mouse IgG HRP-linked antibody; Cell Signaling, USA; #7076) are added to each well and incubated for 30 min. at 37°C. Than, 100µl of TMB substrate (0.05% 3,3',5,5' tetramethylbenzidine, 0.1 % hydrogen peroxide, complex polypeptides in a buffered solution; Cell Signaling, USA; #7160) are added to each well and incubated for 30 min. at 25°C. Finally 100 µl of STOP solution (0.05vol% α and β unsaturated carbonyl compound) are added to each well and the plate are shaked gently. The absorbance is measured at λ =450 nm (Wallac Victor2; Perkin Elmer, USA) within 30 min. after adding the STOP solution. The analysis of the data is performed using a statistical program (Excel; Microsoft, USA). Preferred compounds show an inhibitory activity towards Akt phosphorylation below 10µM.

OvCAR3 cells = test: Cellular proliferation / Cytotoxicity assay (Alamar Blue / Resazurin cell viability); conditions: Homo sapiens, OVCAR-3, 48h incubation, read-out: Anti-proliferative / Cytotoxic activity (OvCAR3 cells)
Experimental: Wells containing untreated control cells were filled with 200 µl DMEM (Dulbecco's Modified Eagle Medium) containing 0.5vol% v:v DMSO. The cells are then incubated with the substances for 48h at 37°C in a humidified atmosphere containing 5vol% CO2. To determine the viability of the cells, 20 µl of a Resazurin solution (90mg / I) are added. […] Viabilities are expressed as % values.

phosphorylated GSK3 = test: Cellular pGSK3 assay (phospho-GSK3 Ser9 sandwich ELISA); conditions: Homo sapiens; MCF7 cells, 48h incubation, IC50 of pGSK3 inhibition
Experimental: In order to study the cellular activity of the compounds according to the present invention, an ELISA-based assay has been established for the phosphorylated protein glycogen synthetase kinase 3 (GSK3). The assay is based on a solid phase sandwich ELISA that detects endogenous levels of phosphorylated GSK3 using a phospho-GSK3 (Ser9) specific antibody (BioSource International, Inc.; Catalog #KHO0461). After incubation with cell lysates, the coated antibody captures the phosphorylated GSK3 protein. Following extensive washing, GSK3 polyclonal antibody is added to detect the captured phospho-GSK3 protein. Secondary antibody (anti-rabbit IgG-HRP) is then used to recognize the bound detection antibody. After the second incubation and washing to remove all the excess anti-rabbit IgG-HRP, a substrate solution is added, which is acted upon by the bound enzyme to produce color. The intensity of this colored product is directly proportional to the concentration of GSK-3β [pS9] present in the original specimen. MCF7 cells (ATCC HTB-22) were seeded into 96 well fate bottom plates at a density of 10000 cells/well. After 24 h 1 µl each of the compound dilutions (test compounds were dissolved as 10 mM solutions in dimethylsulfoxide (DMSO) and subsequently diluted) were added into each well of the 96 well plates and incubated for 48h at 37°C in a humidified athmosphere containing 5% CO2. Cells were harvested and lysed in cell extraction buffer (10 mM Tris, pH 7.4, 100 mM NaCl, 1 mM EDTA, 1 mM EGTA, 1 mM NaF, 20 mM Na4P2O7, 2 mM Na3VO4, 1% Triton X-100, 10vol% glycerol, 0.1vol% SDS, 0.5vol% deoxycholate, 1 mM phenylmethylsulfonylfluorid (PMSF)). The lysate were centrifuged for 10 min. at 4°C and the supernatant were transferred to a new tube. 50 µl of sample diluent (standard diluent buffer, Biosource) were added and 100 µl of cell lysate transferred into the tube and vortexed. 100 µl of each diluted cell lysate were added to the appropriate ELISA well plate and incubated for 3h at room temperature. The plates were washed 4 times with 1x wash buffer (Biosource). 50 µl of detection antibody (GSK3 (Ser9) detection antibody; BioSource) were added to each well and incubated for 30 min. at room temperature. The washing procedure was repeated between each step. 100µl of HRP-linked secondary antibody (anti-mouse IgG HRP-linked antibody) were added to each well and incubated for 30 min. at room temperature. 100µl of TMB substrate (0.05vol% 3,3',5,5' tetramethylbenzidine, 0.1vol% hydrogen peroxide, complex polypeptides in a buffered solution; Biosource) were added to each well and incubated for 30 min. at room temperature. Finally 100 µl of Stop solution (0.05vol% α and β unsaturated carbonyl compound) were added to each well and the plate were shaked gently for a few seconds. The absorbance was measured at λ = 450 nm (Wallac Victor2; Perkin Elmer, USA) within 30 min. after adding the stop solution. The analysis of the data was performed using a statistical program (Excel; Microsoft, USA) and the IC50 of pGSK3 inhibition was determined.

SMILES | IC50 [1] [µM] | IC50 (OvCAR3 cells) [µM] | IC50 (phosphorylated GSK3) [µM]
c1ccc(-c2nc(C3CCN(Cc4ccc(-c5nc6ccccn6c5-c5ccncc5)cc4)CC3)n[nH]2)nc1 [Example 16, 3-pyridin-4-yl-2-(4-{[4-(5-pyridin-2-yl-1,2,4-triazol-3-yl)piperidin-1-yl]methyl}phenyl)imidazo[1,2-a]pyridine] | 1 to 10 | < 10 | 1 to 10
Brc1cccn2c(-c3ccccc3)c(-c3ccc(CN4CCC(c5n[nH]c(-c6ccccn6)n5)CC4)cc3)nc12 [Example 25, 8-bromo-3-phenyl-2-(4-{[4-(5-pyridin-2-yl-1,2,4-triazol-3-yl)piperidin-1-yl]methyl}phenyl)imidazo[1,2-a]pyridine] | < 1 | < 10 | < 1
c1ccc(-c2c(-c3ccc(CN4CCC(c5n[nH]c(-c6ccccn6)n5)CC4)cc3)nc3ccccn23)cc1 [Example 2, 3-phenyl-2-(4-{[4-(5-pyridin-2-yl-1H-1,2,4-triazol-3-yl)piperidin-1-yl]methyl}phenyl)imidazo[1,2-a]pyridine] | < 1 | < 10 | 1 to 10
N#Cc1ccn2c(-c3ccccc3)c(-c3ccc(CN4CCC(c5n[nH]c(-c6ccccn6)n5)CC4)cc3)nc2c1 [Example 29, 3-phenyl-2-(4-{[4-(5-pyridin-2-yl-1,2,4-triazol-3-yl)piperidin-1-yl]methyl}phenyl)imidazo[1,2-a]pyridine-7-carbonitrile] | < 1 | < 10 | < 1
c1ccc(-c2c(-c3ccc(CN4CCC(c5n[nH]c(-c6ccccn6)n5)CC4)cc3)nc3ncccn23)cc1 [Example 1, 3-phenyl-2-(4-{[4-(5-pyridin-2-yl-1,2,4-triazol-3-yl)piperidin-1-yl]methyl}phenyl)imidazo[1,2-a]pyrimidine] | < 1 | < 10 | 1 to 10
c1ccc(-c2c(-c3ccc(CN4CCC(c5cc(-c6ccccn6)n[nH]5)CC4)cc3)nc3ncccn23)cc1 [Example 30, 3-phenyl-2-(4-{[4-(3-pyridin-2-yl-pyrazol-5-yl)piperidin-1-yl]methyl}phenyl)imidazo[1,2-a]pyrimidine] | 1 to 10 | < 10 | < 1
Fc1ccc(-c2c(-c3ccc(CN4CCC(c5n[nH]c(-c6ccccn6)n5)CC4)cc3)nc3ncccn23)cc1 [Example 18, 3-(4-fluorophenyl)-2-(4-{[4-(5-pyridin-2-yl-1,2,4-triazol-3-yl)piperidin-1-yl]methyl}phenyl)imidazo[1,2-a]pyrimidine] | 1 to 10 | < 10 | 1 to 10
Clc1ccc2nc(-c3ccc(CN4CCC(c5nnc(-c6ccccn6)[nH]5)CC4)cc3)c(-c3ccccc3)n2c1 [Example 7, 6-chloro-3-phenyl-2-(4-{[4-(5-pyridin-2-yl-4H-1,2,4-triazol-3-yl)piperidin-1-yl]methyl}phenyl)imidazo[1,2-a]pyridine] | < 1 | < 10 | 1 to 10
Cc1ccn2c(-c3ccccc3)c(-c3ccc(CN4CCC(c5n[nH]c(-c6ccccn6)n5)CC4)cc3)nc2n1 [Example 19, 7-methyl-3-phenyl-2-(4-{[4-(5-pyridin-2-yl-1,2,4-triazol-3-yl)piperidin-1-yl]methyl}phenyl)imidazo[1,2-a]pyrimidine] | < 1 | < 10 | < 1
Brc1cnc2nc(-c3ccc(CN4CCC(c5n[nH]c(-c6ccccn6)n5)CC4)cc3)c(-c3ccccc3)n2c1 [Example 12, 6-bromo-3-phenyl-2-(4-{[4-(5-pyridin-2-yl-1,2,4-triazol-3-yl)piperidin-1-yl]methyl}phenyl)imidazo[1,2-a]pyrimidine] | < 1 | < 10 | < 1
c1ccc(-c2c(-c3ccc(CN4CCC(c5n[nH]c(-c6ccccn6)n5)CC4)cc3)nc3nccnn23)cc1 [Example 3, 7-phenyl-6-(4-{[4-(5-pyridin-2-yl-1H-1,2,4-triazol-3-yl)piperidin-1-yl]methyl}phenyl)imidazo[1,2-b][1,2,4]triazine] | < 1 | < 10 | < 1
Ic1cnc2nc(-c3ccc(CN4CCC(c5n[nH]c(-c6ccccn6)n5)CC4)cc3)c(-c3ccccc3)n2c1 [Example 23, 6-iodo-3-phenyl-2-(4-{[4-(5-pyridin-2-yl-1,2,4-triazol-3-yl)piperidin-1-yl]methyl}phenyl)imidazo[1,2-a]pyrimidine] | < 1 | < 10 | 1 to 10
N=C(N)c1cccn2c(-c3ccccc3)c(-c3ccc(CN4CCC(c5n[nH]c(-c6ccccn6)n5)CC4)cc3)nc12 [Example 33, 3-phenyl-2-(4-{[4-(5-pyridin-2-yl-1,2,4-triazol-3-yl)piperidin-1-yl]methyl}phenyl)imidazo[1,2-a]pyridine-8-carboximidamide] | 1 to 10 | > 10 | > 10
c1ccc(-c2nc(C3CCN(Cc4ccc(-c5nc6ccccn6c5-c5cccs5)cc4)CC3)n[nH]2)nc1 [Example 17, 2-(4-{[4-(5-pyridin-2-yl-1,2,4-triazol-3-yl)piperidin-1-yl]methyl}phenyl)-3-(2-thienyl)imidazo[1,2-a]pyridine] | < 1 | < 10 | 1 to 10
